Laboratory results taken from patent USRE44733E1, “6-mercapto-cyclodextrin derivatives:reversal agents for drug-induced neuromuscular block” (Merck Sharp & Dohme B.V., priority 1999, dated 2014).

System: neuromuscular block, induced by the muscle relaxant rocuronium bromide (Roc)
Experiment: Reversal of neuromuscular blockade in anaesthetized guinea pigs in vivo
Conditions: for concentration at maximum reversal (at conc.) / % max reversal: anaesthetized guinea pigs, rocuronium bromide steady-state block; for concentration at maximum reversal (at conc.): dose of reversal agent at which % max reversal was seen; for % max reversal: maximum reversal; for ED50: dose producing 50% reversal of steady-state neuromuscular block: anaesthetized male Dunkin-Hartley guinea pigs, steady-state block of 85-90% by continuous rocuronium bromide infusion, reversal agent given by jugular vein catheter, M. gastrocnemius contractions
Experimental: Reversal of Neuromuscular Blockade in Anaesthetized Guinea Pigs in vivo
Male Dunkin-Hartley guinea pigs (bodyweight: 600-900 g) were anaesthetized by i.p. administration of 10 mg/kg pentobarbitone and 1000 mg/kg urethane. After tracheotomy, the animals were artificially ventilated using a Harvard small animal ventilator. A catheter was placed into the carotid artery for continuous monitoring of arterial blood pressure and the taking of blood samples for blood gas analysis. Heart rate was derived from the blood pressure signal. The sciatic nerve was stimulated (rectangular pulses of 0.5 ms duration at 10 s (0.1 Hz) intervals at a supramaximal voltage, using a Grass S88 Stimulator) and the force of M. gastrocnemius contractions was measured using a Grass FT03 force-displacement transducer. Contractions, blood pressure and heart rate were recorded on a multichannel Grass 7D recorder. Catheters were placed in both jugular veins. One catheter was used for the continuous infusion of a neuromuscular blocking agent. The infusion rate of the neuromuscular blocking agent was increased until a steady-state block of 85-90% was obtained. The other catheter was used for administration of increasing doses of the reversal agent. During continuous infusion of the neuromuscular blocking agent, single doses of increasing concentration of reversal agent were given. At the end of the experiment, the measured force of muscle contractions was plotted against the concentration of reversal agent, and using regression analysis techniques, the 50% reversal concentration was calculated. Results for the reversal of the neuromuscular block, induced by the muscle relaxant rocuronium bromide (Roc), by the 6-mercapto-cyclodextrin derivatives of Examples 1-19 are presented in Table I. For comparison, the reversal activity of the parent compounds β-cyclodextrin and γ-cyclodextrin are included as well.

SMILES	concentration at maximum reversal (at conc.)	% max reversal	ED50: dose producing 50% reversal of steady-state neuromuscular block
OCCOCCSCC1OC2OC3C(CSCCOCCO)OC(OC4C(CSCCOCCO)OC(OC5C(CSCCOCCO)OC(OC6C(CSCCOCCO)OC(OC7C(CSCCOCCO)OC(OC8C(CSCCOCCO)OC(OC9C(CSCCOCCO)OC(OC1C(O)C2O)C(O)C9O)C(O)C8O)C(O)C7O)C(O)C6O)C(O)C5O)C(O)C4O)C(O)C3O (stereo not drawn) [example 11, 6-Per-deoxy-6-per(5-hydroxy-3-oxa-pentyl)thio-γ-cyclodextrin]	(2.1) μmol · kg^−1	92%	0.47 µmol/kg
O=C([O-])c1ccccc1C(=O)NCCSC[C@H]1O[C@@H]2O[C@H]3[C@H](O)[C@@H](O)[C@@H](O[C@H]4[C@H](O)[C@@H](O)[C@@H](O[C@H]5[C@H](O)[C@@H](O)[C@@H](O[C@H]6[C@H](O)[C@@H](O)[C@@H](O[C@H]7[C@H](O)[C@@H](O)[C@@H](O[C@H]8[C@H](O)[C@@H](O)[C@@H](O[C@H]9[C@H](O)[C@@H](O)[C@@H](O[C@H]1[C@H](O)[C@H]2O)O[C@@H]9CSCCNC(=O)c1ccccc1C(=O)[O-])O[C@@H]8CSCCNC(=O)c1ccccc1C(=O)[O-])O[C@@H]7CSCCNC(=O)c1ccccc1C(=O)[O-])O[C@@H]6CSCCNC(=O)c1ccccc1C(=O)[O-])O[C@@H]5CSCCNC(=O)c1ccccc1C(=O)[O-])O[C@@H]4CSCCNC(=O)c1ccccc1C(=O)[O-])O[C@@H]3CSCCNC(=O)c1ccccc1C(=O)[O-].[Na+].[Na+].[Na+].[Na+].[Na+].[Na+].[Na+].[Na+] [example 12, 6-Per-deoxy-6-per[(2(2-carboxybenzoyl)amino)ethyl]thio-γ-cyclodextrin, Sodium Salt]	(0.48) μmol · kg^−1	95%	0.085 µmol/kg
OCCSC[C@H]1O[C@@H]2O[C@H]3[C@H](O)[C@@H](O)[C@@H](O[C@H]4[C@H](O)[C@@H](O)[C@@H](O[C@H]5[C@H](O)[C@@H](O)[C@@H](O[C@H]6[C@H](O)[C@@H](O)[C@@H](O[C@H]7[C@H](O)[C@@H](O)[C@@H](O[C@H]8[C@H](O)[C@@H](O)[C@@H](O[C@H]9[C@H](O)[C@@H](O)[C@@H](O[C@H]1[C@H](O)[C@H]2O)O[C@@H]9CSCCO)O[C@@H]8CSCCO)O[C@@H]7CSCCO)O[C@@H]6CSCCO)O[C@@H]5CSCCO)O[C@@H]4CSCCO)O[C@@H]3CSCCO [example 13, 6-Per-deoxy-6-per(2-hydroxyethyl)thio-γ-cyclodextrin]	(2.0) μmol · kg^−1	96%	0.20 µmol/kg
CNC(=O)CSCC1OC2OC3C(CSCC(=O)NC)OC(OC4C(CSCC(=O)NC)OC(OC5C(CSCC(=O)NC)OC(OC6C(CSCC(=O)NC)OC(OC7C(CSCC(=O)NC)OC(OC8C(CSCC(=O)NC)OC(OC9C(CSCC(=O)NC)OC(OC1C(O)C2O)C(O)C9O)C(O)C8O)C(O)C7O)C(O)C6O)C(O)C5O)C(O)C4O)C(O)C3O (stereo not drawn) [example 14, 6-Per-deoxy-6-per(N-methylamidomethyl)thio-γ-cyclodextrin]	(7.3) μmol · kg^−1	102%	1.54 µmol/kg
CC(CSC[C@H]1O[C@@H]2O[C@H]3[C@H](O)[C@@H](O)[C@@H](O[C@H]4[C@H](O)[C@@H](O)[C@@H](O[C@H]5[C@H](O)[C@@H](O)[C@@H](O[C@H]6[C@H](O)[C@@H](O)[C@@H](O[C@H]7[C@H](O)[C@@H](O)[C@@H](O[C@H]8[C@H](O)[C@@H](O)[C@@H](O[C@H]9[C@H](O)[C@@H](O)[C@@H](O[C@H]1[C@H](O)[C@H]2O)O[C@@H]9CSCC(C)C(=O)[O-])O[C@@H]8CSCC(C)C(=O)[O-])O[C@@H]7CSCC(C)C(=O)[O-])O[C@@H]6CSCC(C)C(=O)[O-])O[C@@H]5CSCC(C)C(=O)[O-])O[C@@H]4CSCC(C)C(=O)[O-])O[C@@H]3CSCC(C)C(=O)[O-])C(=O)[O-].[Na+].[Na+].[Na+].[Na+].[Na+].[Na+].[Na+].[Na+] (stereo partly drawn) [example 15, 6-Per-deoxy-6-per(2-carboxypropyl)thio-γ-cyclodextrin, Sodium Salt]	(0.48) μmol · kg^−1	103%	0.10 µmol/kg
O=C([O-])CCCSCC1OC2OC3C(CSCCCC(=O)[O-])OC(OC4C(CSCCCC(=O)[O-])OC(OC5C(CSCCCC(=O)[O-])OC(OC6C(CSCCCC(=O)[O-])OC(OC7C(CSCCCC(=O)[O-])OC(OC8C(CSCCCC(=O)[O-])OC(OC1C(O)C2O)C(O)C8O)C(O)C7O)C(O)C6O)C(O)C5O)C(O)C4O)C(O)C3O.[Na+].[Na+].[Na+].[Na+].[Na+].[Na+].[Na+] (stereo not drawn) [example 16, 6-Per-deoxy-6-per(3-carboxypropyl)thio-β-cyclodextrin, Sodium Salt]	(3.2) μmol · kg^−1	100%	0.5 µmol/kg
O=S(=O)([O-])CCSCC1OC2OC3C(CSCCS(=O)(=O)[O-])OC(OC4C(CSCCS(=O)(=O)[O-])OC(OC5C(CSCCS(=O)(=O)[O-])OC(OC6C(CSCCS(=O)(=O)[O-])OC(OC7C(CSCCS(=O)(=O)[O-])OC(OC8C(CSCCS(=O)(=O)[O-])OC(OC9C(CSCCS(=O)(=O)[O-])OC(OC1C(O)C2O)C(O)C9O)C(O)C8O)C(O)C7O)C(O)C6O)C(O)C5O)C(O)C4O)C(O)C3O.[Na+].[Na+].[Na+].[Na+].[Na+].[Na+].[Na+].[Na+] (stereo not drawn) [example 17, 6-Per-deoxy-6-per(2-sulfoethyl)thio-γ-cyclodextrin, Sodium Salt]	(1.7) μmol · kg^−1	106%	0.055 µmol/kg
OCC(CO)(CO)CSCC1OC2OC3C(CSCC(CO)(CO)CO)OC(OC4C(CSCC(CO)(CO)CO)OC(OC5C(CSCC(CO)(CO)CO)OC(OC6C(CSCC(CO)(CO)CO)OC(OC7C(CSCC(CO)(CO)CO)OC(OC8C(CSCC(CO)(CO)CO)OC(OC9C(CSCC(CO)(CO)CO)OC(OC1C(O)C2O)C(O)C9O)C(O)C8O)C(O)C7O)C(O)C6O)C(O)C5O)C(O)C4O)C(O)C3O (stereo not drawn) [example 18, 6-Per-deoxy-6-per(2,2-di(hydroxymethyl)-3-hydroxy-propyl)thio-γ-cyclodextin]	(4.9) μmol · kg^−1	63%	2.9 µmol/kg
OC1C2OC(CSCCCc3nnn[n-]3)C(OC3OC(CSCCCc4nnn[n-]4)C(OC4OC(CSCCCc5nnn[n-]5)C(OC5OC(CSCCCc6nnn[n-]6)C(OC6OC(CSCCCc7nnn[n-]7)C(OC7OC(CSCCCc8nnn[n-]8)C(OC8OC(CSCCCc9nnn[n-]9)C(OC9OC(CSCCCc%10nnn[n-]%10)C(O2)C(O)C9O)C(O)C8O)C(O)C7O)C(O)C6O)C(O)C5O)C(O)C4O)C(O)C3O)C1O.[Na+].[Na+].[Na+].[Na+].[Na+].[Na+].[Na+].[Na+] (stereo not drawn) [example 19, 6-Per-deoxy-6-per(3-(tetrazol-5-yl)propyl)thio-γ-cyclodextrin, Sodium Salt]	(1.2) μmol · kg^−1	109%	0.22 µmol/kg
